Measured values reported in patent US8623924B2, “Compositions and methods for modulating metabolic pathways” (Nusirt Sciences, Inc., priority 2011, dated 2014).
Entries after “also recorded” stand apart in the source; their conditions may differ.

Legend:
[1] = tested on: myotube mitochondrial biogenesis; assay: Myotube mitochondrial biogenesis (NAO binding), Example 1; type: cell-based; conditions: assessed fluorometrically via NAO binding
Procedure: We next investigated the role of intact leucine (0-0.5 mM) vs. its metabolites, α-ketoisocaproic acid (KIC) (0-0.5 mM) and HMB (0-50 μM). […] Both leucine and HMB increased myotube mitochondrial biogenesis (assessed fluorometrically via NAO binding) by ˜50%, (p<0.005, FIG. 3).

SIRT1 = target: T1, SIRT1 (Homo sapiens, UniProt Q96EB6); assay: SIRT1 activity, cell-free fluorimetric deacetylation assay; type: biochemical; conditions: cell-free system
T1 construct: purchased ENZO Life Sciences International, Inc. BML-AK555
T1 sequence (Q96EB6 1-747): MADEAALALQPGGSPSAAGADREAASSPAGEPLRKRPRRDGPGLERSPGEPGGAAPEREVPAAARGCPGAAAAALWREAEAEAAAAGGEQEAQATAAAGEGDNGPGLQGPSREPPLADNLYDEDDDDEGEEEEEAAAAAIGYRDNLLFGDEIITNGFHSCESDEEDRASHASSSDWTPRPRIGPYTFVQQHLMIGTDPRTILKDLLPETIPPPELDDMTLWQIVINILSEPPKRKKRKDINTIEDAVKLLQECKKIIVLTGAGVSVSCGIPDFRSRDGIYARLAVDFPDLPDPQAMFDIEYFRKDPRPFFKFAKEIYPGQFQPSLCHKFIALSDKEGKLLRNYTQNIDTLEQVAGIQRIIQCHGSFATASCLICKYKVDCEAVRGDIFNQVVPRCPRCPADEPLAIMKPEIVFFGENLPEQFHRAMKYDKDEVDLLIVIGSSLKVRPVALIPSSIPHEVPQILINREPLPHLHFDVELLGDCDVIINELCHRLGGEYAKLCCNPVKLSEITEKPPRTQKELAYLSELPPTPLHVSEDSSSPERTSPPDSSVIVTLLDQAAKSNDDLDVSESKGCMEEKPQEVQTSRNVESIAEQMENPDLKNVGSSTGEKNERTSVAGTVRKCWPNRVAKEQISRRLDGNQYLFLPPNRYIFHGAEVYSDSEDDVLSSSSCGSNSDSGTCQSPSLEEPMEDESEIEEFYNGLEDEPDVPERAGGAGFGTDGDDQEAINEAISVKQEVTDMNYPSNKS
Procedure: SIRT1 activity was measured by using the SIRT1 Fluorimetric Drug Discovery Kit (BML-AK555, ENZO Life Sciences International, Inc. PA, USA). In this assay, SIRT1 activity is assessed by the degree of deacetylation of a standardized substrate containing an acetylated lysine side chain. The substrate utilized is a peptide containing amino acids 379-382 of human p53 (Arg-His-Lys-Lys[Ac]), an established target of SIRT1 activity; SIRT1 activity is directly proportional to the degree of deacetylation of Lys-382. Samples were incubated with peptide substrate (25 μM), and NAD^+ (500 μM) in a phosphate-buffered saline solution at 37° C. on a horizontal shaker for 45 minutes. The reaction was stopped with the addition of 2 mM nicotinamide and a developing solution that binds to the deacetylated lysine to form a fluorophore. Following 10 minutes incubation at 37° C., fluorescence was read in a plate-reading fluorometer at an excitation wavelength of 360 nm and an emission wavelength of 450 nm. […] A standard curve was constructed using deacetylated substrate (0-10 μM).

Sirt3 = target: T2, Sirt3 (Mus musculus, UniProt Q8R104); assay: Sirt3 activity in mitochondrial protein of treated 3T3-L1 adipocytes; type: cell-based; conditions: 4 hours, leucine 0.5 mM, HMB 5 uM, resveratrol 200 nM
T2 construct: endogenous in cells; host or cells: 3T3-L1 adipocytes (mitochondrial protein)
T2 sequence (Q8R104 1-334): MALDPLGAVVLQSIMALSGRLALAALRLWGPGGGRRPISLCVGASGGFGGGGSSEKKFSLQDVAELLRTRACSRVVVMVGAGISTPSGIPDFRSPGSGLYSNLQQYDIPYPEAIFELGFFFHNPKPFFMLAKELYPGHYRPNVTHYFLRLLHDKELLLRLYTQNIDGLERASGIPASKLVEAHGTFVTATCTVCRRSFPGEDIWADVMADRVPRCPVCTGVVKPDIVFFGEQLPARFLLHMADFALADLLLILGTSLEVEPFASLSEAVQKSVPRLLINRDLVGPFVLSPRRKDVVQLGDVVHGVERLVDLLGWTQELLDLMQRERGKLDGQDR

CC(C)(O)CC(=O)O [HMB]
increase in myotube mitochondrial biogenesis [1]: ~50% | SIRT1 activity (SIRT1): significantly increased SIRT1 activity | increase in Sirt3 activity (Sirt3): no significant independent effect; also recorded: no independent effects
